Data reported in ChEMBL document CHEMBL4840307, “Synthesis and biological evaluation of 1-(4-(piperazin-1-yl)phenyl)pyridin-2(1H)-one derivatives as potential SSRIs” (Eur J Med Chem, 2021).
Blank lines part the entries; values can stand above or below the compound they belong to. Active and inactive are the calls of the source. The rule behind the calls is not given here.

Legend:
[1] = target: Sodium-dependent serotonin transporter (Rattus norvegicus, UniProt P31652); test: Inhibition of serotonin transporter expressed in rat brain tissue assessed as inhibition of [3H]-5-hydroxytryptamine reuptake measured after 15 mins by scintillation counting analysis; assay type: tissue-based
[2] = Metabolic stability in rat liver microsomes assessed as half life incubated for 60 mins by LC-MS/MS analysis; assay type: ADME, Microsome
[3] = Metabolic stability in rat liver microsomes assessed as clearance incubated for 60 mins by LC-MS/MS analysis; assay type: ADME, Microsome; conditions: read-out: CLH
[4] = Cmax in Sprague-Dawley rat at 2 mg/kg, iv measured by LC-MS/MS analysis; assay type: ADME, organism-based; design: route intravenous, dose 2 mg/kg; conditions: in vivo
[5] = Cmax in Sprague-Dawley rat at 5 mg/kg, po measured by LC-MS/MS analysis; assay type: ADME, organism-based; design: route oral, dose 5 mg/kg; conditions: in vivo
[6] = AUC (0 to t) in Sprague-Dawley rat at 2 mg/kg, iv measured by LC-MS/MS analysis; assay type: ADME, organism-based; design: dose 2 mg/kg; conditions: in vivo
[7] = AUC (0 to t) in Sprague-Dawley rat at 5 mg/kg, po measured by LC-MS/MS analysis; assay type: ADME, organism-based; design: dose 5 mg/kg; conditions: in vivo
[8] = Half life in Sprague-Dawley rat at 2 mg/kg, iv measured by LC-MS/MS analysis; assay type: ADME, organism-based; conditions: in vivo
[9] = Half life in Sprague-Dawley rat at 5 mg/kg, po measured by LC-MS/MS analysis; assay type: ADME, organism-based; conditions: in vivo
[10] = Volume of distribution in steady state in Sprague-Dawley rat at 2 mg/kg, iv measured by LC-MS/MS analysis; assay type: ADME, organism-based; conditions: in vivo, read-out: Vdss
[11] = Clearance in Sprague-Dawley rat at 2 mg/kg, iv measured by LC-MS/MS analysis; assay type: ADME, organism-based; conditions: in vivo
[12] = Oral bioavailability in Sprague-Dawley rat at 5 mg/kg measured by LC-MS/MS analysis; assay type: ADME, organism-based; conditions: in vivo
[13] = target: T1, 5-hydroxytryptamine receptor 1A (Homo sapiens, UniProt P08908); test: Inhibition of 5-HT1a (unknown origin)
T1 sequence (P08908 whole entry): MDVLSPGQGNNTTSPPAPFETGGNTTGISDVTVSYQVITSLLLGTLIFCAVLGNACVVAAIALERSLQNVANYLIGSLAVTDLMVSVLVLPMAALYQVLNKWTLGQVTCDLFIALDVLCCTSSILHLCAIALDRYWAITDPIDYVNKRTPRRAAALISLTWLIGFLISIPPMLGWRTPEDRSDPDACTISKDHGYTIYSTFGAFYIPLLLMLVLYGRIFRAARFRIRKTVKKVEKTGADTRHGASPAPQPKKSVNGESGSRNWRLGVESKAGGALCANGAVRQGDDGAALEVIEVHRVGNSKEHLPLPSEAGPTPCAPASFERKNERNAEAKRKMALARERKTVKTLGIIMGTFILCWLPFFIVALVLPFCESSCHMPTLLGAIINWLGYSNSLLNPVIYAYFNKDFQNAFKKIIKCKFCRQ

[14] = target: 5-hydroxytryptamine receptor 2A (Homo sapiens, UniProt P28223); test: Inhibition of 5-HT2a (unknown origin)
[15] = target: T2, 5-hydroxytryptamine receptor 2C (Homo sapiens, UniProt P28335); test: Inhibition of 5-HT2c (unknown origin)
T2 sequence (P28335 whole entry): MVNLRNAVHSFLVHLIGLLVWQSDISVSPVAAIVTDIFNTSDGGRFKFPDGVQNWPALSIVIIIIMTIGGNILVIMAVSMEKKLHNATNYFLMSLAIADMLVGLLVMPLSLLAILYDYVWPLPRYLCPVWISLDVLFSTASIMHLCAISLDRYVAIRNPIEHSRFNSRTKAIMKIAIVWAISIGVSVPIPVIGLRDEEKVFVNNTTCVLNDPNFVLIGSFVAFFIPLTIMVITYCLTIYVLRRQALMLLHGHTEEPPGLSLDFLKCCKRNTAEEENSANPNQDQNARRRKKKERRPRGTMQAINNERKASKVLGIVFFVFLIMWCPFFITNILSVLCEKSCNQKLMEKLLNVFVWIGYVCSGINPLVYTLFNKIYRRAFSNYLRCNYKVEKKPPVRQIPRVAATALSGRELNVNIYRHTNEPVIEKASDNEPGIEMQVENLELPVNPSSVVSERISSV

[16] = target: T3, 5-hydroxytryptamine receptor 3A (Homo sapiens, UniProt P46098); test: Inhibition of 5-HT3 (unknown origin)
T3 sequence (P46098 whole entry): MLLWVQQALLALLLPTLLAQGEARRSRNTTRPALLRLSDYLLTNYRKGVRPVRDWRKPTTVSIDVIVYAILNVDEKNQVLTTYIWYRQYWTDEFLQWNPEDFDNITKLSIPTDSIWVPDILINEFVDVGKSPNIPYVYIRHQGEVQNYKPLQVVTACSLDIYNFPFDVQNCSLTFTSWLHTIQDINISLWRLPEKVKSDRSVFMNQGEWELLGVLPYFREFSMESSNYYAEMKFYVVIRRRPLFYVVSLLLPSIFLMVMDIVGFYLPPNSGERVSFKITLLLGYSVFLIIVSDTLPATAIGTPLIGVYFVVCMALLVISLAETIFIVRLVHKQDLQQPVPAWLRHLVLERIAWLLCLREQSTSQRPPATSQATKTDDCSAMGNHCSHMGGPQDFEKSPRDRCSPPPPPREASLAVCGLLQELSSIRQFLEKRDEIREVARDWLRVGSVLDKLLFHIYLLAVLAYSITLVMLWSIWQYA

[17] = target: Sodium-dependent serotonin transporter (Rattus norvegicus) (UniProt P31652); test: Antagonist activity at SERT in Sprague-Dawley rat hypothalamus assessed as PCA induced serotonin depletion at 10 mg/kg, iv measured after 30 mins by LC-MS/MS analysis; assay type: organism-based; conditions: filed as antagonist
Rattus norvegicus [18] = test: Antidepressant-like activity in rat assessed as reduction in immobility time at 3 ml/kg, sc measured after 60 mins by Forced swimming test; assay type: functional, organism-based
Rattus norvegicus [19] = test: Antidepressant-like activity in rat assessed as reduction in immobility time at 10 ml/kg, sc measured after 60 mins by Forced swimming test; assay type: functional, organism-based

Sequence of Sodium-dependent serotonin transporter (P31652 whole entry): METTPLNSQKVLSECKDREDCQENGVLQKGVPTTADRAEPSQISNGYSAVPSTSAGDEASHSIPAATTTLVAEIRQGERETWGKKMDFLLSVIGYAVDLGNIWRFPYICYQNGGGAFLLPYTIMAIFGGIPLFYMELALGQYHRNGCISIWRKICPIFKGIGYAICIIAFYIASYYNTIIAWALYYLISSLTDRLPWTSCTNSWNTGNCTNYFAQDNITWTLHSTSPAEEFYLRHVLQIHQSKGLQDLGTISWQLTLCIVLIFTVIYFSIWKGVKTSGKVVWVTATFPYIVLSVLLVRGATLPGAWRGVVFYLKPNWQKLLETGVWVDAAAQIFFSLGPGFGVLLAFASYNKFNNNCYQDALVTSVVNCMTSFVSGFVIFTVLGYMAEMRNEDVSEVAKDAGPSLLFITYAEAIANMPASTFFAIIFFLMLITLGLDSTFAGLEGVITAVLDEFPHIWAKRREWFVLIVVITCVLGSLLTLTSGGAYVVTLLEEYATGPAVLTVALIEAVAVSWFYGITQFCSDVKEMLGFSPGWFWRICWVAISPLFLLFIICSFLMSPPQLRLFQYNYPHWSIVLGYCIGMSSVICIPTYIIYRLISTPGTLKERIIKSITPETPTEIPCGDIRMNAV
Sequence of 5-hydroxytryptamine receptor 2A (P28223 whole entry): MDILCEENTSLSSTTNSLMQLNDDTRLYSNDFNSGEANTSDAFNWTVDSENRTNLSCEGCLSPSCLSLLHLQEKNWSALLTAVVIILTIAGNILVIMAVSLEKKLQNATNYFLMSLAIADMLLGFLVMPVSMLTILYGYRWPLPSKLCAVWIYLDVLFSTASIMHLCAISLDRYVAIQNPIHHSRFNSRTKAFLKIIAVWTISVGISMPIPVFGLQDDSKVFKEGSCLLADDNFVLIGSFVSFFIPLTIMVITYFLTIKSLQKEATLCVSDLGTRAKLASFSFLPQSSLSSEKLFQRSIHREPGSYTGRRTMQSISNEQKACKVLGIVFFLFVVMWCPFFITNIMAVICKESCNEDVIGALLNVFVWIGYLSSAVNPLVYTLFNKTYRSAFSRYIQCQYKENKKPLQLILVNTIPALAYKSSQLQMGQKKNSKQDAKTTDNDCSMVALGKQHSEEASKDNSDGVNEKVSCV
Sequence of Sodium-dependent serotonin transporter (Rattus norvegicus) (P31652 whole entry): as the sequence (P31652 whole entry) above

- IC50 [1]: 7.57 nM
Compound: Cc1ccn(-c2ccc(N3CCN(CCc4c[nH]c5ccc(C#N)cc45)CC3)cc2)c(=O)c1

- IC50 [1]: 10.2 nM
Compound: N#Cc1ccc2[nH]cc(CCCN3CCN(c4ccc(-n5ccc6ccccc6c5=O)cc4)CC3)c2c1

- IC50 [1]: 2.02 nM
Compound: Cc1ccn(-c2ccc(N3CCN(CCCc4c[nH]c5ccc(C#N)cc45)CC3)cc2)c(=O)c1

- IC50 [1]: 6 nM
Compound: N#Cc1ccc2[nH]cc(CCCCCN3CCN(c4ccc(-n5cc(F)ccc5=O)cc4)CC3)c2c1

- half-life [2]: 5.2 h
- CLint scaled [3]: 0.264 L/h/kg
- Cmax [4]: 0.694 µg/mL
- Cmax [5]: 0.0336 µg/mL
- AUC(0-t) [6]: 0.559 µg·h/mL
- AUC(0-t) [7]: 0.077 µg·h/mL
- half-life [8]: 1.26 h
- half-life [9]: 2.26 h
- Vd [10]: 3.21 L/kg
- clearance [11]: 3.56 L/h/kg
- bioavailability [12]: 5.8%
- IC50 [13]: 0.14 nM
- IC50 [14]: > 10000 nM
- IC50 [15]: > 10000 nM
- IC50 [16]: > 10000 nM
Compound: N#Cc1ccc2[nH]cc(CCCCN3CCN(c4ccc(-n5ccc6occc6c5=O)cc4)CC3)c2c1

- IC50 [1]: 2.22 nM
Compound: N#Cc1ccc2[nH]cc(CCCN3CCN(c4ccc(-n5cc(F)ccc5=O)cc4)CC3)c2c1

- IC50 [1]: 3.75 nM
Compound: N#Cc1ccc2[nH]cc(CCCCN3CCN(c4ccc(-n5cc(F)ccc5=O)cc4)CC3)c2c1

- IC50 [1]: 4.31 nM
Compound: N#Cc1ccc2[nH]cc(CCCCN3CCN(c4ccc(-n5ccc6ccccc6c5=O)cc4)CC3)c2c1

- IC50 [1]: 1.35 nM
Compound: N#Cc1ccc2[nH]cc(CCCCCN3CCN(c4ccc(-n5ccccc5=O)cc4)CC3)c2c1

- IC50 [1]: 1.6 nM
Compound: N#Cc1ccc2[nH]cc(CCCCN3CCN(c4ccc(-n5ccccc5=O)cc4)CC3)c2c1

- half-life [2]: 1.89 h
- CLint scaled [3]: 0.732 L/h/kg
- Cmax [4]: 0.831 µg/mL
- Cmax [5]: 0.0705 µg/mL
- AUC(0-t) [6]: 0.823 µg·h/mL
- AUC(0-t) [7]: 0.189 µg·h/mL
- half-life [8]: 1.01 h
- half-life [9]: 0.82 h
- Vd [10]: 2.47 L/kg
- clearance [11]: 2.45 L/h/kg
- bioavailability [12]: 9.19%
- Activity [17]: Active
- IC50 [13]: 0.5 nM
- IC50 [14]: > 10000 nM
- IC50 [15]: > 10000 nM
- IC50 [16]: > 10000 nM
Compound: N#Cc1ccc2[nH]cc(CCCCN3CCN(c4ccc(-n5ccc6ncccc6c5=O)cc4)CC3)c2c1
- Activity (Rattus norvegicus [18]): Active
- Activity (Rattus norvegicus [19]): Active

- IC50 [1]: 4.58 nM
Compound: COc1ccn(-c2ccc(N3CCN(CCCc4c[nH]c5ccc(C#N)cc45)CC3)cc2)c(=O)c1

- IC50 [1]: 5.51 nM
Compound: N#Cc1ccc2[nH]cc(CCN3CCN(c4ccc(-n5cc(F)ccc5=O)cc4)CC3)c2c1

- half-life [2]: 0.298 h
- CLint scaled [3]: 4.64 L/h/kg
Compound: N#Cc1ccc2[nH]cc(CCCCN3CCN(c4ccc5oc(C(N)=O)cc5c4)CC3)c2c1 [VILAZODONE]

- half-life [2]: 0.0735 h
- CLint scaled [3]: 18.9 L/h/kg
- IC50 [13]: 1.7 nM
- IC50 [14]: > 10000 nM
- IC50 [15]: > 10000 nM
- IC50 [16]: > 10000 nM
Compound: N#Cc1ccc2[nH]cc(CCCN3CCN(c4ccc(-n5ccc6ncccc6c5=O)cc4)CC3)c2c1

- IC50 [1]: 2.03 nM
Compound: Cc1ccn(-c2ccc(N3CCN(CCCCc4c[nH]c5ccc(C#N)cc45)CC3)cc2)c(=O)c1
